How the values were obtained:
[1] = tested on: peripheral insulin exposure (PIE); test: Glucose supply and insulin demand model: effect on peripheral insulin exposure; assay type: in vivo, human; design: PIE (24 h insulin exposure): unit not given here; conditions: for PIE: adjustment factor = increase in peripheral insulin exposure at the therapeutic dose of Table 1, T2D
Procedure: (§1) Therapeutic targets of the glucose supply (CE, 1+2; HGU, 3; GNG, 4; IR, 5) and insulin demand (PGU, 6; PIE, 7) model are presented in FIG. 1. To identify quantitative differences between antidiabetic agents on CE, HGU, GNG, IR, PGU, and PIE, multidatabase searches (Cochrane Central Register of Controlled Trials and Cochrane Register of Systematic Reviews, Embase, OVID Healthstar, OVID Journals, and PubMed) were conducted cross-referencing title and keywords for all selected antidiabetic therapies and their respective targets.
(§2) Alpha-glucosidase, biguanide, and thiazolidinedione (TZD) studies with long-term, pre-post design at maximal therapeutic doses were identified to simulate chronic administration. To maintain consistency with cardiovascular trials and accommodate known influences of hyperglycemia and hyperinsulinemia on the respective targets,^13-16 studies including patients with HbA1c in the range of 6-8% and body mass index (BMI)≧30 kg/m^2 were preferentially selected. In the event multiple studies were available to identify the effect of an agent on a therapeutic target, the mean percent change was used. Conversely, if there was evidence that an agent would elicit a response on a given target but no mathematical representation of the difference was provided, conservative estimates consistent with the scale of other agents and the degree of glucose regulation were instituted to best represent the expected effect. Individual agents were then characterized for the 24 h percent change from baseline for CE, HGU, GNG, IR, PGU, and PIE. Carbohydrate exposure was determined as the combined effect of caloric intake and intestinal carbohydrate absorption. Hepatic glucose uptake was defined as the reported value obtained immediately following oral glucose loading. Because GNG is known to be enhanced in the fasting state and persistent throughout the prandial phase,^17,18 effect was determined during the fasting state and considered equivalent throughout the prandial phase. For studies evaluating fasting glucose and insulin concentrations, an index of IR was determined by homeostasis model assessment of insulin resistance (HOM-AIR) using the following formula: Insulin (mU/liter)×Glucose (mmol)/22.5.^19 To account for known differences in secretory and uptake dynamics during the fasting and prandial phases, studies identifying the impact of therapies during the fasting state (or simulated hyperinsulinemic euglycemic clamp) and prandial phase (or oral glucose load insulin clamp) were specifically identified for changes in PGU (glucose infusion rate) and PIE (insulin concentrations) according to Equation (1): […]
(§3) For sulfonylurea and insulin-based therapies, insulin concentration time profiles were obtained and superimposed on the baseline 24 h insulin concentration time profile of T2D patients (FIG. 2) to calculate the increase in PIE (trapezoidal rule).^20 Calculated increases in incremental and cumulative insulin exposure were correlated to known insulin dose-response effects on HGU, GNG, and PGU (FIG. 3),^18,21 according to the equation y=mx+b. Twenty-four-hour increases in HGU, PGU, and PIE and decreases in GNG were compared to baseline values and percent change calculated.
(§4) With alpha-glucosidase, biguanide, TZD, secretagogue, and insulin therapies characterized for their respective impacts on CE, HGU, GNG, IR, PIE, and PGU, identification of their effect on the glucose supply (decrease in CE, increase in HGU, decrease in GNG, decrease in IR) and insulin demand (increase in PIE, increase in PGU) dynamic was assessed according to Equation (2), which provides the SD ratio according to the invention: […]
Twenty-four-hour steady state insulin concentration time curves were superimposed on the baseline secretion profile of the standard T2D patient.

[2] = tested on: hepatic gluconeogenesis (GNG); test: Glucose supply and insulin demand model: effect on hepatic gluconeogenesis; assay type: in vivo, human; conditions: for GNG inhibition: adjustment factor = decrease in hepatic gluconeogenesis at the therapeutic dose of Table 1, T2D
Procedure: as §1, §2, §3, §4

[3] = tested on: peripheral glucose uptake (PGU); test: Glucose supply and insulin demand model: effect on peripheral glucose uptake; assay type: in vivo, human; conditions: for PGU: adjustment factor = increase in peripheral glucose uptake at the therapeutic dose of Table 1, T2D
Procedure: as §1, §2, §3, §4

[4] = tested on: hepatic glucose uptake (HGU); test: Glucose supply and insulin demand model: effect on hepatic glucose uptake; assay type: in vivo, human; conditions: for HGU uptake: adjustment factor = increase in hepatic glucose uptake at the therapeutic dose of Table 1, T2D
Procedure: as §1, §2, §3, §4

[5] = tested on: insulin resistance (IR); test: Glucose supply and insulin demand model: effect on insulin resistance; assay type: in vivo, human; conditions: for IR reduction: adjustment factor = decrease in insulin resistance at the therapeutic dose of Table 1, T2D
Procedure: as §1, §2, §3, §4

[6] = tested on: carbohydrate exposure (CE); test: Glucose supply and insulin demand model: effect on carbohydrate exposure; assay type: in vivo, human; design: scale not given here; conditions: for CE inhibition: adjustment factor = decrease in carbohydrate exposure at the therapeutic dose of Table 1, T2D
Procedure: as §1, §2, §3, §4

[7] = tested on: hepatic gluconeogenesis (GNG); conditions: cited from earlier work
[8] = Metformin 2000 mg, Glyburide 10 mg, Pioglitazone 45 mg, Insulin Glargine 0.5 U/kg daily, pH encapsulated glucose 3.0 grams/day
[9] = Insulin Glargine 1.0 U/Kg daily
[10] = insulin glargine 0.5 U/kg, from insulin dose-response relationship

| Compound | PIE [1] | GNG inhibition [2] | PGU [3] | HGU uptake [4] | IR reduction [5] | CE inhibition [6] | other results |
| --- | --- | --- | --- | --- | --- | --- | --- |
| Cc1ccc(S(=O)(=O)NC(=O)NN2CCCCCC2)cc1 [Tolazamide] | 0.21 | 0.07 | 0.36 | 0.14 | 0.00 |  |  |
| Cc1cnc(C(=O)NCCc2ccc(S(=O)(=O)NC(=O)NC3CCCCC3)cc2)cn1 [Glipizide] |  | 0.08 |  |  | 0.00 |  |  |
| Insulin Aspart | 0.42 | 0.14 | 0.80 | 0.23 | 0.00 | 0.00 |  |
| Insulin Lispro | 0.42 | 0.14 | 0.80 | 0.23 | 0.00 | 0.00 |  |
| COc1ccc(Cl)cc1C(=O)NCCc1ccc(S(=O)(=O)NC(=O)NC2CCCCC2)cc1 [Glyburide] | 0.21 | 0.07 | 0.36 | 0.14 | 0.00 |  | Score PIE [1, 8]: 0.21; Score HGI [2, 8]: 0.07; Score CE [6, 8]: 0.00; Score PGU [3, 8]: 0.36; Score HGU [4, 8]: 0.14; Score IR [5, 8]: 0.00 |
| CCOc1cc(CC(=O)N[C@@H](CC(C)C)c2ccccc2N2CCCCC2)ccc1C(=O)O [Repaglinide] | 0.20 | 0.07 | 0.31 | 0.16 | 0.00 |  |  |
| CCCCNC(=O)NS(=O)(=O)c1ccc(C)cc1 [Tolbutamide] | 0.21 | 0.07 | 0.36 | 0.14 | 0.00 |  |  |
| Insulin Aspart Protamine | 0.28 | 0.10 | 0.40 | 0.23 | 0.00 | 0.00 |  |
| Insulin Glargine | 0.30 | 0.10 | 0.42 | 0.24 | 0.00 | 0.00 | Score PIE [1, 9]: 0.60; Score PIE [1, 8]: 0.30; PIE (24 h insulin exposure) ([1]; insulin glargine 0.5 U/kg superimposed on standard T2D profile, baseline 5765): 7495; increase in PIE versus baseline ([1]; insulin glargine 0.5 U/kg, 24 h profile superimposed on standard T2D profile, trapezoidal rule): 30%; Score HGI [2, 9]: 0.20; Score HGI [2, 8]: 0.10; decrease in GNG [2, 10]: 10%; Score CE [6, 9]: 0.00; Score CE [6, 8]: 0.00; Score PGU [3, 9]: 0.84; Score PGU [3, 8]: 0.42; increase in PGU [3, 10]: 42%; Score HGU [4, 9]: 0.48; Score HGU [4, 8]: 0.24; increase in HGU [4, 10]: 24%; Score IR [5, 9]: 0.00; Score IR [5, 8]: 0.00 |
| Insulin Isophane | 0.28 | 0.10 | 0.40 | 0.23 | 0.00 | 0.00 |  |
| CCCNC(=O)NS(=O)(=O)c1ccc(Cl)cc1 [Chlorpropamide] | 0.21 | 0.07 | 0.36 | 0.14 | 0.00 |  |  |
| Insulin Ultralente | 0.24 | 0.08 | 0.38 | 0.17 | 0.00 | 0.00 |  |
| CC(C)[C@H]1CC[C@H](C(=O)N[C@H](Cc2ccccc2)C(=O)O)CC1 [Nateglinide] | 0.34 | 0.11 | 0.60 | 0.21 | 0.00 |  |  |
| Insulin Regular | 0.33 | 0.11 | 0.64 | 0.21 | 0.00 | 0.00 |  |
| C[C@H]1O[C@H](O[C@H]2[C@H](O)[C@@H](O)[C@@H](O[C@H]3[C@H](O)[C@@H](O)C(O)O[C@@H]3CO)O[C@@H]2CO)[C@H](O)[C@@H](O)[C@@H]1N[C@H]1C=C(CO)[C@@H](O)[C@H](O)[C@H]1O (stereo partly drawn) [Acarbose] | 0.05 | 0.05 | 0.25 | 0.15 | 0.15 |  |  |
| Cc1c(C)c2c(c(C)c1O)CCC(C)(COc1ccc(CC3SC(=O)NC3=O)cc1)O2 (stereo not drawn) [Troglitazone] | −0.10 | 0.22 | 0.67 | 0.40 | 0.35 |  |  |
| CCC1=C(C)CN(C(=O)NCCc2ccc(S(=O)(=O)NC(=O)N[C@H]3CC[C@H](C)CC3)cc2)C1=O [Glimepiride] | 0.24 | 0.08 | 0.39 | 0.18 | 0.00 |  |  |
| CN(CCOc1ccc(CC2SC(=O)NC2=O)cc1)c1ccccn1 (stereo not drawn) [Rosiglitazone] | −0.10 | 0.23 |  |  | 0.39 |  |  |
| Insulin Lispro Protamine | 0.28 | 0.10 | 0.40 | 0.23 | 0.00 | 0.00 |  |
| CCc1ccc(CCOc2ccc(CC3SC(=O)NC3=O)cc2)nc1 (stereo not drawn) [Pioglitazone] | −0.10 | 0.21 | 0.59 | 0.40 | 0.35 |  | Score PIE [1, 8]: −0.10; Score HGI [2, 8]: 0.21; Score CE [6, 8]: 0.00; Score PGU [3, 8]: 0.59; Score HGU [4, 8]: 0.40; Score IR [5, 8]: 0.35 |
| Insulin Lente | 0.28 | 0.10 | 0.40 | 0.23 | 0.00 | 0.00 |  |
| OCCN1C[C@H](O)[C@@H](O)[C@H](O)[C@H]1CO [Miglitol] | 0.05 | 0.05 | 0.25 | 0.15 | 0.15 |  | hepatic glucose output ([7]; Schnack, miglitol 300 mg/day, eight weeks, euglycemic clamp, poorly controlled T2D, placebo 0.35±0.17, not significant): 0.37±0.15 mg/kg^−1/min^−1; change in hepatic glucose production ([7]; Sels, miglitol 200 mg at bedtime for 1 week, T2D): not associated with a change in hepatic glucose production |
| CC(=O)c1ccc(S(=O)(=O)NC(=O)NC2CCCCC2)cc1 [Acetohexamide] | 0.21 | 0.07 | 0.36 | 0.14 | 0.00 |  |  |
